2 molecules from publication PMC8298375 (Naunyn-Schmiedeberg's Archives of Pharmacology, 2021) can be followed below.

In this experiment the test system is scopolamine-induced amnesia rats. Nature of the experiment: Passive avoidance test, scopolamine-induced amnesia (acute model). It is filed as in vivo, Wistar rats. Conditions: Mean ± SEM; for Latency time: time to enter darker compartment. The procedure:
In the acute model, the rats were trained for Morris water maze (MWM) and passive avoidance test (PAT) tasks in the first 4 days. On the 5th day, 30 min after scopolamine administration, respective treatments were given to all the groups. Fifteen minutes thereafter, the test trials were conducted in MWM and PAT.
The passive avoidance apparatus consists of a larger illuminated compartment and a smaller dark compartment. Each consists of a square box, with a floor grid of 50 × 50 cm and wooden walls of 35-cm height in larger compartment. Larger box was illuminated by 15 W Philips CFL lamp. A smaller dark compartment of 15 × 15 cm with an electrified floor is connected to a constant current stimulator. An opening 6 × 6 cm in between the two compartments was closed using a transparent plexiglass sliding door. The test procedure was carried out in three phases, exploration, learning, and retention (Praveenkumar [2019]).
First day, the animal was placed in the center of the illuminated larger compartment facing away from the entrance to the small darker compartment and allowed to explore the apparatus, i.e., both compartments for 3 min. Total time spent in the larger and smaller compartments and the number of crossings (from larger to smaller compartments and vice versa; a measure of exploratory behavior) were noted. On the second day, animal was placed in the illuminated larger compartment facing away from the entrance to the darker compartment. Once the animal entered the darker compartment, the entrance to the larger compartment was closed, and three strong electric foot shocks (50 Hz, 0.5 mA, 2 s) with 10-s intervals were applied. On the third day, rats were placed in the illuminated larger compartment and allowed to explore both the compartments for 3 min. The parameters assessed are latency time to enter into darker compartment, time spent in the darker and brighter compartments, and the number of crossings between the compartments.

SMILES strings stand for the structures.

For the molecule `CCN(C)C(=O)Oc1cccc([C@H](C)N(C)C)c1` [ORSM, rivastigmine], for the setting “listed as SCP + ORSM”, the Acquisition time came to 14.66 ± 2.61 s, the No. of crossings is on record as 2.50 ± 0.85, the “Time spent in bright comp.” value was determined as 103.50 ± 16.38 s and the “Time spent in darker comp.” value is 76.50 ± 16.38 s. Besides, where the note is “listed as SCP + ORSM”, the Latency time turned out to be 41.63 ± 15.66 a s.
Take `CCN(C)C(=O)Oc1cccc([C@H](C)N(C)C)c1` [INRSM, rivastigmine]: for the setting “listed as SCP + INRSM”, the Acquisition time stood at 11.59 ± 2.37 s, the No. of crossings stood at 2.17 ± 0.54, the “Time spent in bright comp.” value was 109.67 ± 11.65 s and the “Time spent in darker comp.” value is recorded as 70.33 ± 11.65 s. For the same molecule, for the setting “listed as SCP + INRSM”, the Latency time was 60.11 ± 16.82 a s.
